Several values for one entry are separate records, joined by “and”; a condition that tells them apart may be missing. Equal entries are not always repeated.
Key:
[1] = system: EL4 cells; experiment: Cell death and caspase-2 processing in EL4 cells; assay type: cell-based, mouse; conditions: EL4, 8 h
Excerpt: (§1) We further examined whether HUHS015-derived compounds could activate endogenous caspase-2 in human cells. […] Complementing the CASP2^−/− Jurkat cells with exogenous caspase-2 restored HUHS015-36-induced apoptosis, in which caspase-2 was expectedly processed (Fig. 5A and 5B). We also profiled caspase-2 expression in a panel of 10 mouse tumor cell lines and observed highly variable expression levels (Fig. 5C). […] In B16-F10 (melanoma), LLC1 (Lewis lung carcinoma), MB49 (bladder carcinoma), KPC (pancreatic ductal adenocarcinoma), and 4T1 (mammary carcinoma) cells, caspase-2 was expressed at much lower levels (Fig. 5C). In contrast, EMT6 (mammary carcinoma), EL4 (T lymphoblast), and Hepa1-6 (hepatoma) feature robust caspase-2 expression, much higher than in Jurkat cells (Fig. 5C).
(§2) Figure 5. HUHS015-36 activates endogenous caspase-2 to induce apoptosis in Jurkat cells but not mouse cells. (A and B) HUHS015-36 activates endogenous caspase-2 and induces apoptosis in human Jurkat cells. […] Lysates of 10 mouse cancer cell lines were analyzed by immunoblotting using indicated antibodies. […] ATP cell viability (A and D) is expressed as mean ± s.d. from three technical replicates. […]
(§3) Cell viability was measured by the ATP assay using the CellTiter-Glo® Luminescent Cell Viability Assay kit (Promega).

[2] = system: Hepa1-6 cells; experiment: Cell death and caspase-2 processing in Hepa1-6 cells; assay type: cell-based, mouse; conditions: Hepa1-6, 8 h
Excerpt: as §1, §2, §3

[3] = molecular target: T1, MBP-CASP2(32–165), human caspase-2 pro-domain (Homo sapiens, UniProt P42575); experiment: MicroScale Thermophoresis binding to MBP-fused caspase-2 pro-domain; conditions: MST, 25°C, PBST buffer; means ± s.d. from two determinations; read-out: KD (binding constant)
T1 construct: cDNAs encoding BID and caspase-2 pro-domain (residues 32–165) were constructed into modified pET vectors; made in house; host or cells: E. coli BL21 (DE3)
T1 sequence (P42575 32-165): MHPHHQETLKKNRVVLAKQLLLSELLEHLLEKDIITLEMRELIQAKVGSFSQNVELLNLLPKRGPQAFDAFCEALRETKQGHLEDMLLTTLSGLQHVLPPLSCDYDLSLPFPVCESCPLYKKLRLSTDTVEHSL
Excerpt: (§4) The above results prompted us to reason whether HUHS015-36 could directly target caspase-2 for activation without the requirement of any other mediator. To directly test this hypothesis, we tried to obtain purified caspase-2 protein. The preparation of full-length caspase-2 protein is known to be technically challenging. Meanwhile, the CARD domain of a caspase often plays the role in sensing upstream signals, as exemplified by the CARD of caspase-2 that is recruited by RAIDD through the CARD–CARD interaction for assembling the PIDDosome. […]
(§5) Figure 4. […] (A) The direct binding between HUHS015-36 and MBP-fused human caspase-2 pro-domain was detected by microscale thermophoresis (MST). […] The calculated dissociation constant (KD) is expressed as means ± s.d. from two determinations. […] ATP-based cell viability in panels (C–E) is expressed as mean ± s.d. from three technical replicates. […] TEXT PRINTED IN THE PICTURE: (A) HUHS015-36: MBP-CASP2(32–165) vs. HUHS015-36: KD (μmol/L): 22.05 ± 6.151; MBP vs. HUHS015-36: KD (μmol/L): Not detected
(§6) MicroScale thermophoresis (MST) experiments were carried out at 25°C in the PBST Buffer (PBS with 0.05%, v/v Tween 20) by using a Monolith 2020 (TNG) (MM-208). […] The temperature-induced changes in fluorescence intensity of each sample in the capillary thermophoresis tubes were recorded by the Monolith instrument. […]

[4] = molecular target: MBP (Escherichia coli, UniProt P0AEX9); experiment: MicroScale Thermophoresis binding to MBP alone (control); conditions: MST
Excerpt: as §4, §5, §6

[5] = system: mouse caspase-2-expressing HeLa cells; experiment: Cell death and caspase-2 processing in HeLa TKO cells expressing mouse caspase-2; assay type: cell-based; conditions: high concentrations of HUHS015
Excerpt: Figure 4. HUHS015 activates human caspase-2 directly through specific targeting of the interdomain linker of caspase-2. (A) The direct binding between HUHS015-36 and MBP-fused human caspase-2 pro-domain was detected by microscale thermophoresis (MST). MST profiles for raw binding signals and affinity (KD) measurement are shown. The calculated dissociation constant (KD) is expressed as means ± s.d. from two determinations. (B) Sequence alignment of the pro-domain (residues 1–169) of human and mouse caspase-2. CARD domain annotation is shown on top of the sequences. Identical residues are in red background and conserved ones are in red. Numbers of starting residues are indicated on the left. Different residues in the interdomain linker (residues 122–169) were highlighted with green color. (C) HUHS015 activates human but not mouse caspase-2. HeLa TKO cells rescued with human or mouse caspase-2 expression were treated with HUHS015 for the indicated time. […] ATP-based cell viability in panels (C–E) is expressed as mean ± s.d. from three technical replicates. […] TEXT PRINTED IN THE PICTURE: (A) HUHS015-36: MBP-CASP2(32–165) vs. HUHS015-36: KD (μmol/L): 22.05 ± 6.151; MBP vs. HUHS015-36: KD (μmol/L): Not detected […]
as §3

Row | Compound | caspase-2 processing and cell death [1] | caspase-2 processing and cell death [2] | Kd [3] | KD [4] | apoptosis / caspase-2 processing [5]
1 | Cc1cccc2nc(-n3nc4c(c3O)CCCC4)[nH]c12 [HUHS015-36] | no caspase-2 processing and cell death were detected | no caspase-2 processing and cell death were detected | ~22 µM and 22.1 µM | Not detected | 
2 | Cc1ccc2nc(-n3nc(C)c(Cc4ccccc4)c3O)[nH]c2c1 [HUHS015] |  |  |  |  | no apoptosis

Source: article PMC11637483, “Dissecting caspase-2-mediated cell death: from intrinsic PIDDosome activation to chemical modulation” (Protein & Cell, 2024)
